Source: patent publication US12503471B2, “Triazatricycle compounds for the treatment of autoimmune disease” (Hoffmann-La Roche Inc., priority 2019, dated 2025)

Assay: Human microsomal stability assay
Assay type: in vitro ADME
Conditions: human liver microsomes, 1 μM test compound, 0.5 mg/mL protein, 37° C., pH 7.4
Description: Human Microsomal Stability Assay
Human liver microsomes (Cat.NO.: 452117, Corning, USA) were preincubated with test compound for 10 minutes at 37° C. in 100 mM potassium phosphate buffer, pH 7.4. The reactions were initiated by adding NADPH regenerating system. The final incubation mixtures contained 1 μM test compound, 0.5 mg/mL liver microsomal protein, 1 mM MgCl2, 1 mM NADP, 1 unit/mL isocitric dehydrogenase and 6 mM isocitric acid in 100 mM potassium phosphate buffer, pH 7.4. After incubation times of 0, 3, 6, 9, 15 and 30 minutes at 37° C., 300 μL of cold ACN (including internal standard) was added to 100 μL incubation mixture to terminate the reaction. Following precipitation and centrifugation, 100 uL supernatant will be taken out and added 300 uL water. The amount of compound remaining in the samples was determined by LC-MS/MS. Controls of no NADPH regenerating system at zero and 30 minutes were also prepared and analyzed. The results were categorized as: low (7.0 mL/min/kg), medium (7.0-16.2 mL/min/kg) and high (16.2-23.2 mL/min/kg).

Compound | CL (h) [mL/min/kg]
N#Cc1ccc(N2CCN3Cc4cc(N5CCNCC5)ncc4C3C2)c2cccnc12 (centres unmarked) [Example 1, 5-(11-Piperazin-1-yl-4,7,12-triazatricyclo[7.4.0.02,7]trideca-1(9),10,12-trien-4-yl)quinoline-8-carbonitrile] | 6.2
CC1(N)CCN(c2ccc3c(n2)CN2CCN(c4ccc(C#N)c5ncccc45)C[C@H]32)CC1 [Example 4B, 5-[(2S)-11-(4-amino-4-methyl-1-piperidyl)-4,7,10-triazatricyclo[7.4.0.02,7]trideca-1(9),10,12-trien-4-yl]quinoline-8-carbonitrile] | 8.1
